Conditions: buffer

CC(=O)NC1[C@H](O[C@@H]2C(CO)O[C@H](O[C@H]3C(CO)O[C@@H](O[C@@H]4C(O)[C@@H](COP(=O)(O)OCCCCCN)OC(CO)[C@H]4O)C(NC(C)=O)[C@H]3O[C@@H]3OC(CO)[C@@H](O)[C@H](O)C3O)[C@@H](O)C2O)OC(CO)[C@H](O)[C@@H]1O[C@@H]1OC(CO)[C@@H](O)[C@H](O)C1O (stereo partly shown) [compound 33]
compound remaining intact (HPLC): 50%

— US12187756B2 (priority 2018, dated 2025)
